Experimental data from article PMC8387766 (The Journal of Biological Chemistry, 2021).

How the values were obtained:
mouse TRPV1 (wildtype) [1] = target: T1, mouse TRPV1 (wildtype) (Mus musculus, UniProt Q704Y3); conditions: WT channel; cited from earlier work
mouse TRPV1 Y512A mutant = mouse TRPV1 Y512A mutant (Mus musculus, UniProt Q704Y3, Y512A); format: cell-based; conditions: saturating concentration for the wildtype channel; whole-cell recording
mouse TRPV1 (wildtype) [2] = target: T1, mouse TRPV1 (wildtype); experiment: Whole-cell patch-clamp of wild-type TRPV1 in HEK293 cells; format: cell-based
mouse TRPV1 E571A mutant = mouse TRPV1 E571A mutant (Mus musculus, UniProt Q704Y3, E571A); experiment: Whole-cell patch-clamp of TRPV1 E571A mutant; format: cell-based; conditions: whole-cell recording
mouse TRPV1 T551V mutant = mouse TRPV1 T551V mutant (Mus musculus, UniProt Q704Y3, T551V); experiment: cell-based; format: cell-based
Sequence of mouse TRPV1 T551V mutant (Q704Y3 whole entry T551V): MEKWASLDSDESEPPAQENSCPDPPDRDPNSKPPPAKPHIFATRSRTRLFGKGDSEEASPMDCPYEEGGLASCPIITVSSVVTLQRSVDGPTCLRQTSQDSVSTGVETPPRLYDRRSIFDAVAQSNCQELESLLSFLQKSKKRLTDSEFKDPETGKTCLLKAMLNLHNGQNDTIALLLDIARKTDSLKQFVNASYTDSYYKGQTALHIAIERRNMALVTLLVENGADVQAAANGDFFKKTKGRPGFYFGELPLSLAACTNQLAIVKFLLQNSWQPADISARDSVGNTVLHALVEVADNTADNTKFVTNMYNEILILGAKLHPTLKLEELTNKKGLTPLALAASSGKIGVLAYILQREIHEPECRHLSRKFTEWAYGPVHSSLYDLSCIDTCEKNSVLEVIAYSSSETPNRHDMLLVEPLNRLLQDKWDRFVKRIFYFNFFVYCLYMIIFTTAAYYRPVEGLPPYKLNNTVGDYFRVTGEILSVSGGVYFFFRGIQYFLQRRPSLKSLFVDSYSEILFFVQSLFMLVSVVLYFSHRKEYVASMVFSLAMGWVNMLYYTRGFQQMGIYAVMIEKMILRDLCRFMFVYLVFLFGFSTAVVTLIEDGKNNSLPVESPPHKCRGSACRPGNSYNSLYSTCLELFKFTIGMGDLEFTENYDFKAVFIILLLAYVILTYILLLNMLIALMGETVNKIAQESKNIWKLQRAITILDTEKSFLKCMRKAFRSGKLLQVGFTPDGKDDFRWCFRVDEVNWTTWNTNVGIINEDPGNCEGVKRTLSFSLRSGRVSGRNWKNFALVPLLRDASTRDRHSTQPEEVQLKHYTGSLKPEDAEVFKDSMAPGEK

Sequence of mouse TRPV1 E571A mutant (Q704Y3 whole entry E571A): as the sequence (Q704Y3 whole entry T551V) above, with V551T, E571A counted along it
T1 sequence (Q704Y3 whole entry): as the sequence (Q704Y3 whole entry T551V) above, with V551T counted along it
Sequence of mouse TRPV1 Y512A mutant (Q704Y3 whole entry Y512A): as the sequence (Q704Y3 whole entry T551V) above, with Y512A, V551T counted along it

| activation of the Y512A mutant (mouse TRPV1 Y512A mutant) | EC50 (mouse TRPV1 (wildtype) [2]) | activation of the E571A mutant (mouse TRPV1 E571A mutant) | shift of activation to higher concentration, T551V versus wildtype (mouse TRPV1 T551V mutant) | Compound | maximum open probability (Po_max) (mouse TRPV1 (wildtype) [1]) | EC50 (mouse TRPV1 T551V mutant) |
| --- | --- | --- | --- | --- | --- | --- |
| largely activated | – | – | – | NCCOB(c1ccccc1)c1ccccc1 [2-APB, 2-aminoethyl diphenylborinate] | ~100% | – |
| – | 290 ± 80 nM | barely opened | – | CCCCCCCC/C=C\CCCCCCCC(=O)NCCc1ccc(O)c(O)c1 [OLDA, N-oleoyldopamine] | – | 540 ± 140 nM |
| activated | 146 ± 39 nM | can still activate | about 10 fold | COc1cc(CNC(=O)CCCC/C=C/C(C)C)ccc1O [capsaicin] | – | – |

| Compound | activation of the Y512A mutant (mouse TRPV1 Y512A mutant) | EC50 (mouse TRPV1 (wildtype) [2]) | activation of the E571A mutant (mouse TRPV1 E571A mutant) | shift of activation to higher concentration, T551V versus wildtype (mouse TRPV1 T551V mutant) | maximum open probability (Po_max) (mouse TRPV1 (wildtype) [1]) | EC50 (mouse TRPV1 T551V mutant) |
| --- | --- | --- | --- | --- | --- | --- |
| CCCCC/C=C\C/C=C\C/C=C\C/C=C\CCCC(=O)NCCO [AEA, anandamide] | – | 6020 ± 1230 nM | barely opened | – | – | 4880 ± 780 nM |
